Data taken from ChEMBL document CHEMBL1201862, “PubChem BioAssay data set” (2004).
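Method: 48-hour compound exposure of cells in 96-well plates, five concentrations, linear interpolation of endpoints. The concentration for 50% growth inhibition is given as GI50.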 Active and inactive are the calls of the source. Cut-off read from the data, not from the text of the source: active = GI50 up to about 1.1 µM and inactive = higher.

Tests used:
Assay in all cases: DTP human tumour cell line panel, 48 h
[1] = test system: OVCAR-3
[2] = test system: SK-OV-3
[3] = test system: A498
[4] = test system: KM12
[5] = test system: MCF7
[6] = test system: TK-10
[7] = test system: 786-0
[8] = test system: SF-268
[9] = test system: RPMI-8226
[10] = test system: HOP-62
[11] = test system: DU-145
[12] = test system: HCT-116
[13] = test system: U-251
[14] = test system: SK-MEL-5
[15] = test system: HCT-15
[16] = test system: SK-MEL-2
[17] = test system: SF-295
[18] = test system: NCI-H460
[19] = test system: A549
[20] = test system: OVCAR-4
[21] = test system: NCI/ADR-RES
[22] = test system: RXF 393
[23] = test system: MDA-N
[24] = test system: COLO 205
[25] = test system: HOP-92
[26] = test system: HL-60
[27] = test system: MOLT-4
[28] = test system: SN12C
[29] = test system: OVCAR-5
[30] = test system: T47D
[31] = test system: UO-31
[32] = test system: ACHN
[33] = test system: EKVX
[34] = test system: SNB-19
[35] = test system: MDA-MB-231
[36] = test system: SK-MEL-28
[37] = test system: K562
[38] = test system: Malme-3M
[39] = test system: M14
[40] = test system: CAKI-1
[41] = test system: BT-549
[42] = test system: HT-29
[43] = test system: SNB-75
[44] = test system: SW-620
[45] = test system: PC-3
[46] = test system: UACC-62
[47] = test system: NCI-H23
[48] = test system: LOX IMVI
[49] = test system: CCRF-CEM
[50] = test system: IGROV-1
[51] = test system: MDA-MB-435
[52] = test system: NCI-H226
[53] = test system: SF-539
[54] = test system: OVCAR-8
[55] = test system: HCC 2998
[56] = test system: UACC-257
[57] = test system: SR
[58] = test system: NCI-H522

Measured: GI50

COC(=O)c1cc(NC(=O)c2cc(NC(=O)c3cc([N+](=O)[O-])cn3C)cn2C)cn1C
inactive: [1] > 100 µM | [2] 49.4 µM | [3] > 100 µM | [4] 64.1 µM | [5] > 100 µM | [6] 20.3 µM | [7] > 100 µM | [8] > 100 µM | [9] 29.4 µM | [10] > 100 µM | [11] > 100 µM | [12] 43.4 µM | [13] 36.8 µM | [14] 10.2 µM | [16] 80.2 µM | [17] 89.5 µM | [18] 40.3 µM | [19] > 100 µM | [20] 40 µM | [21] 61.4 µM | [22] > 100 µM | [23] > 100 µM | [24] 44.4 µM | [25] 14.3 µM | [26] 86.5 µM | [27] 29.8 µM | [28] > 100 µM | [29] 81.1 µM | [30] 12 µM | [31] 68.4 µM | [32] 66.1 µM | [33] 34.1 µM | [34] 59.6 µM | [35] 35.6 µM | [36] > 100 µM | [37] 61.9 µM | [38] 26.9 µM | [39] > 100 µM | [40] 69.2 µM | [41] > 100 µM | [42] > 100 µM | [43] > 100 µM | [44] > 100 µM | [45] 94.2 µM | [46] 55.6 µM | [47] 30.8 µM | [48] 56.2 µM | [49] > 100 µM | [51] 98.6 µM | [52] > 100 µM | [53] > 100 µM | [54] > 100 µM
active: [50] 0.0147 µM
82 µM: [15]

CC[C@@]1(O)C(=O)OCc2c1cc1n(c2=O)Cc2c-1nc1ccccc1c2/C=N/c1ccccc1N[C@@H]1c2cc3c(cc2[C@@H](c2cc(OC)c(O)c(OC)c2)[C@H]2C(=O)OC[C@@H]21)OCO3
active: [55] 0.148 µM | [5] 0.00684 µM | [7] 0.0142 µM | [8] 0.0161 µM | [9] 0.175 µM | [10] 0.0103 µM | [11] 0.00767 µM | [12] 0.0527 µM | [13] 0.188 µM | [14] 0.0532 µM | [19] 0.0351 µM | [20] 0.427 µM | [25] 0.209 µM | [30] 0.014 µM | [32] 0.0106 µM | [35] 1.05 µM | [56] 0.278 µM | [38] 0.329 µM | [39] 0.0239 µM | [40] 0.0204 µM | [41] 0.269 µM | [57] < 0.005 µM | [43] 0.028 µM | [44] 0.157 µM | [45] 0.164 µM | [46] 0.014 µM | [48] 0.0194 µM | [49] < 0.005 µM | [52] 0.0362 µM

COc1ccc2c(c1)OCC1Cc3cc4c(cc3OC21)OCO4 (stereo not given)
30.4 µM: [15]
inactive: [1] 47.9 µM | [2] 37.2 µM | [55] 44.6 µM | [3] > 100 µM | [4] 31.8 µM | [5] 46.8 µM | [6] 28.1 µM | [7] 34.8 µM | [8] 55.7 µM | [9] 71.4 µM | [10] 41.2 µM | [11] 56.4 µM | [12] 31 µM | [13] 42.6 µM | [14] 16.8 µM | [16] 30 µM | [17] 48.5 µM | [19] 38.8 µM | [21] 26.2 µM | [23] 3.14 µM | [24] 35.9 µM | [25] > 100 µM | [27] 36.8 µM | [28] 28.4 µM | [29] 60.7 µM | [30] 32.1 µM | [31] 38.6 µM | [32] 97.3 µM | [33] 41.1 µM | [34] > 100 µM | [35] > 100 µM | [37] 33.1 µM | [56] 30.2 µM | [38] 54.1 µM | [39] 32.1 µM | [40] 47 µM | [41] 61 µM | [58] 49.2 µM | [57] 40.6 µM | [42] 35.1 µM | [44] 35.7 µM | [45] 41.6 µM | [46] 31.3 µM | [47] > 100 µM | [48] 19.4 µM | [49] 51.1 µM | [50] 43 µM | [51] 7.73 µM | [52] > 100 µM | [53] 39.6 µM | [54] 45 µM
